The source of these data is patent US4189607A, “Anilionotropone derivatives” (priority 1979, dated 1980).

In data set [1] the test system is acetic acid writhing. The data set is described as follows: Analgesic activity, acetic acid writhing test (Koster et al). The settings on record: p.o. The format is in vivo, Male ddY strain mice. From the text: Experiment 3: Analgesic activity
Male ddY strain mice in groups of ten each were used for evaluation of analgesic activity by the acetic acid writhing test (Koster et al, Federation Proc., 18, 412 (1959). The results are shown in Tables 3 and 4.

Data set [2] concerns gastric lesions. The experiment in a line: Gastric ulcerogenicity (gastric lesions). The settings on record: p.o., 18 hours fasting prior to autopsy. The format is in vivo, Male Wistar strain rats. The source says: Experiment 4: Gastric ulcerogenicity […] The gastric lesions induced was expressed as incidence (number of rats with gastric lesions/number of the test rats) and lesion index (sum of areas damaged).

The test system of data set [3] is rat paw edema. The experiment in a line: Anti-inflammatory activity, carrageenin rat paw edema (Winter et al). The format is in vivo, Male Wistar strain rats. The settings on record: p.o., four hours after injection of carrageenin. Here is the method: Experiment 1: Anti-inflammatory activity
Anti-inflammatory activity was evaluated by the method of rat paw edema (Winter et al, J. Pharmacol. Exp. Ther., 141, 369 (1963) ). Six male Wistar strain rats were used in each group and the volume of each paw was measured four hours after injection of carrageenin.

A short description of data set [4]: Analgesic activity, method of Randall-Selitto with slight modification. The format is in vivo, Male Wistar strain rats. Conditions: 25 mg/kg orally, vs Cpd. 3 at 100 mg/kg. Here is the method: Experiment 2: Analgesic activity
Male Wistar strain rats in groups of six each were used for the evaluation of analgesic activity by the method of Randall-Selitto (Arch. Intern. Pharmacodyn., 111, 409 (1957) ) with slight modification. In a graph where the load was plotted on the ordinate and the time was plotted on the abscissa, the curve obtained when Cpd. 1 was orally administered in a dose of 25 mg/kg was substantially in agreement with the curve obtained when Cpd. 3 was orally administered in a dose of 100 mg/kg. […] 1 was administered in a dose of 50 mg/kg and the Cpd 3 was administered in a dose of 200 mg/kg.

[5] abbreviates: Table 6, 100 + 200 mg/kg, 200 mg/kg.

Molecules are shown by their SMILES. Counter-ions that a name gives are not always drawn.

Regarding `CCCCC1C(=O)N(c2ccccc2)N(c2ccccc2)C1=O` [Cpd. 3, phenylbutazone, reference compound], the “Inhibition (%)” value in data set [1] (Table 3, 200 mg/kg) was determined as 18.5%; in data set [1] (Table 4, 100 mg/kg), 10.7%; in data set [3] (Table 1, 25 mg/kg), 22.4%; in data set [3] (Table 1, 50 mg/kg), 34.7%; in data set [3] (Table 1, 100 mg/kg), 54.5%; in data set [3] (Table 2, 100 mg/kg), 32.5%. Besides, the “Lesion index (sum of areas damaged)” value turned out to be 0.02 ± 0.014 mm^2 in data set [2] (Table 5, 25 + 50 mg/kg); 1.43 ± 0.43 mm^2 in data set [2] (Table 5, 50 + 100 mg/kg); 6.82 ± 1.40 mm^2 in data set [2] (Table 5, 100 + 200 mg/kg); 7.70 ±3.23 mm^2 in data set [2] (Table 6, 100 + 200 mg/kg).
Take `CC(C(=O)O)c1ccc(Nc2cccccc2=O)cc1` (centres unmarked) [Cpd. 1, 2-[p-(2-troponylamino)phenyl]propionic acid]: in data set [4], the “Load-time curve compared with Cpd. 3” value is listed as “substantially in agreement with the curve obtained when Cpd. 3 was orally administered in a dose of 100 mg/kg”. Further, the “Inhibition (%)” value in data set [1] (Table 3, 100 mg/kg) amounted to 54.8%; in data set [3] (Table 1, 25 mg/kg), 56.8%; in data set [3] (Table 1, 50 mg/kg), 50.9%; in data set [3] (Table 1, 100 mg/kg), 61.0%. Besides, the “Incidence (number of rats with gastric lesions/number of the test rats)” value in data set [2] (Table 5, 25 + 50 mg/kg) was 0/6; in data set [2] (Table 5, 50 + 100 mg/kg) it was 1/6; in data set [2] (Table 5, 100 + 200 mg/kg), 4/6. Further, the “Lesion index (sum of areas damaged)” value in data set [2] (Table 5, 25 + 50 mg/kg) was determined as 0 mm^2; in data set [2] (Table 5, 50 + 100 mg/kg) it was 0.02 ± 0.017 mm^2; in data set [2] (Table 5, 100 + 200 mg/kg), 0.52 ± 0.17 mm^2.
With `CC(C(=O)O)c1cccc(Nc2cccccc2=O)c1` (centres unmarked) [Cpd. 2, 2-[m-(2-troponylamino)phenyl]propionic acid], the “Inhibition (%)” value in data set [1] (Table 4, 100 mg/kg) was determined as 31.2%. For the same compound, in data set [2] (setting [5]), the “Incidence (number of rats with gastric lesions/number of the test rats)” value is 0/6 and the “Lesion index (sum of areas damaged)” value worked out at 0 mm^2. The “Inhibition (%)” value in data set [3] (Table 2, 100 mg/kg, 100 mg/kg) came to 43.0%.
With `CC(C(=O)O)c1cccc(Nc2cccccc2=O)c1` (centres unmarked) [Cpd. 2-Ca salt, calcium 2-[m-(2-troponylamino)phenyl]propionate], the “Inhibition (%)” value in data set [1] (Table 4, 100 mg/kg) was 31.2%. For the same compound, in data set [2] (setting [5]), the “Incidence (number of rats with gastric lesions/number of the test rats)” value is recorded as 2/6 and the “Lesion index (sum of areas damaged)” value is 0.12 ± 0.10 mm^2. Also, the “Inhibition (%)” value in data set [3] (Table 2, 100 mg/kg, 100 mg/kg) is 43.2%.
